From the CheMixHub ionic liquid set

Assay: xn = mol fraction of the nth substance listed

CCCC[n+]1ccn(C)c1C.NCC(=O)[O-] + O
100 kPa
Details	viscosity [mPa·s]
293.15 K, x1 = 0.3904	66
298.15 K, x1 = 0.0999	13.7
298.15 K, x1 = 0.1982	22.2
298.15 K, x1 = 0.3003	34.6
298.15 K, x1 = 0.6	94
298.15 K, x1 = 0.6999	119
298.15 K, x1 = 0.798	146
303.15 K, x1 = 0.9001	125
308.15 K, x1 = 0.0999	7.8
308.15 K, x1 = 0.3003	20.2
308.15 K, x1 = 0.3904	28.4
308.15 K, x1 = 0.6999	65
313.15 K, x1 = 0.3904	23.4
313.15 K, x1 = 0.9001	71
318.15 K, x1 = 0.6999	46.4
318.15 K, x1 = 0.798	54

CCC[n+]1ccccc1.N#C[N-]C#N + O
100 kPa
Details	electrical conductivity [S/m]	viscosity [mPa·s]
298.15 K, x1 = 0.9303	1.49	–
298.15 K, x1 = 0.9562	–	22.43
298.15 K, x1 = 0.9708	–	23.39
303.15 K, x1 = 0.9303	1.68	–
303.15 K, x1 = 0.9442	1.64	–
303.15 K, x1 = 0.9731	1.57	–
313.15 K, x1 = 0.9277	–	13.05
313.15 K, x1 = 0.9562	–	13.71
313.15 K, x2 = 0.01178	2.12	–
318.15 K, x1 = 0.9442	2.6	–
318.15 K, x1 = 0.9708	–	12.47
323.15 K, x1 = 0.9277	–	9.72
323.15 K, x1 = 0.9442	2.95	–
323.15 K, x1 = 0.9731	2.87	–
328.15 K, x1 = 0.9417	–	8.63
328.15 K, x1 = 0.9562	–	8.88
333.15 K, x1 = 0.9442	3.81	–
333.15 K, x1 = 0.9731	3.72	–
338.15 K, x1 = 0.9562	–	7.17
338.15 K, x1 = 0.9584	4.22	–

CCCn1cc[n+](C)c1.N[C@@H](CO)C(=O)[O-] + O
100 kPa
Details	electrical conductivity [S/m]	viscosity [mPa·s]
298.15 K, x1 = 0.8782	–	2215
298.15 K, x1 = 0.9094	–	2314
298.15 K, x1 = 0.9257	–	2391
303.15 K, x1 = 0.9426	–	1547
308.15 K, x1 = 0.8782	–	912
313.15 K, x1 = 0.8656	0.0804	–
313.15 K, x1 = 0.8956	0.0751	–
313.15 K, x1 = 0.9115	0.0721	–
318.15 K, x1 = 0.8936	–	432
318.15 K, x1 = 0.9094	–	438
318.15 K, x1 = 0.9115	0.102	–
318.15 K, x1 = 0.928	0.0979	–
323.15 K, x1 = 0.8809	0.15	–
323.15 K, x1 = 0.8956	0.145	–
323.15 K, x1 = 0.9426	–	337
328.15 K, x1 = 0.8809	0.199	–
328.15 K, x1 = 0.9257	–	238
333.15 K, x1 = 0.8782	–	171
333.15 K, x1 = 0.9115	0.248	–
338.15 K, x1 = 0.9115	0.319	–
338.15 K, x1 = 0.9257	–	134.8
338.15 K, x1 = 0.928	0.312	–

CC[n+]1ccccc1.O=S(=O)([O-])C(F)(F)F + O
101 kPa
Details	viscosity [mPa·s]
293.15 K, x1 = 0.067	2.47
298.15 K, x1 = 0.067	2.16
298.15 K, x1 = 0.498	15.04
313.15 K, x1 = 0.689	17.4
343.15 K, x1 = 0.689	8.42
353.15 K, x1 = 0.893	10.74

C[N+](C)(C)CCO.NCC(=O)[O-] + O
100 kPa
Details	viscosity [mPa·s]
298.15 K, x1 = 1	501
303.15 K, x1 = 0.6966	202
308.15 K, x1 = 0.1	4.34
308.15 K, x1 = 0.3996	60.2
313.15 K, x1 = 0.3996	49
313.15 K, x1 = 0.5004	71.1
318.15 K, x1 = 0.1	3.35
318.15 K, x1 = 0.3	25.63
318.15 K, x1 = 0.3996	40.89
318.15 K, x1 = 0.5004	56
318.15 K, x1 = 1	154.5
